≈ marks a conversion by molar mass, not a printed value. Blank lines part the entries; values can stand above or below the molecule they belong to.
Experiments:
Type in all cases: physicochemical
[1] = Stability of polymorph form by pH measurement when stirred in water
Experimental: Additional tests were performed to understand the differences between form 1 and 3. One of those tests was to check stability of polymorph form by pH measurement at several times when the different forms were stirred in water (Table 11). During the tests, any changes in polymorph form were checked.

[2] = Solubility of Compound 1 in organic solvents other than MTBE/n-heptane; conditions: thermodynamic from solid
Experimental: Solubility and Form Measurement
The solubility of Compound 1 was evaluated in organic solvents other than MTBE/n-heptane mixtures. The form of the residual solids was examined by XRPD.

[3] = Competitive slurry of Form 1 and Form 3 in MTBE/n-heptane mixtures (XRPD)
Excerpt: Compound 1 was also subjected to competitive slurry experiments between Compound 1, Form 1 and Compound 1, Form 3 in MTBE/n-heptane mixtures as summarized in Table 7 below.

[4] = Solubility determination by HPLC
Excerpt: Because of the small differences in solubilities, HPLC was used to measure the solubilities. The values were conformed to the shake-flask results. […] In alcohol, there was a difference in dissolution rate. This difference was not observed for aqueous solutions.

Compound: CCOC(=O)[C@@H]1CC2(CCN(c3cc(O[C@H](c4ccc(Cl)cc4-c4ccccc4)C(F)(F)F)nc(N)n3)CC2)CN1 [ES928-59-2]
- pH (2 hours) [1]: 8.26
- pH (4 hours) [1]: 7.75
- pH (7 hours) [1]: 7.76

Compound: CCOC(=O)[C@@H]1CC2(CCN(c3cc(O[C@H](c4ccc(Cl)cc4-c4ccccc4)C(F)(F)F)nc(N)n3)CC2)CN1 [ES928-59-1]
- pH (2 hours) [1]: 8.68
- pH (4 hours) [1]: 8.22
- pH (7 hours) [1]: 8.05

Compound: CCOC(=O)[C@@H]1CC2(CCN(c3cc(O[C@H](c4ccc(Cl)cc4-c4ccccc4)C(F)(F)F)nc(N)n3)CC2)CN1 [Compound 1, (S)-ethyl 8-(2-amino-6-((R)-1-(5-chloro-[1,1′-biphenyl]-2-yl)-2,2,2-trifluoroethoxy)pyrimidin-4-yl)-2,8-diazaspiro[4.5]decane-3-carboxylate]
- solubility ([2]; EA/n-heptane 1:1, 10 °C, organic solvent or mixture): 422 mg/mL (≈ 715 mM)
- solubility ([2]; EA/n-heptane 1:3, 10 °C, organic solvent or mixture): 115 mg/mL (≈ 195 mM)
- solubility ([2]; EtOH/n-heptane 1:1, 10 °C, organic solvent or mixture): 396 mg/mL (≈ 671 mM)
- solubility ([2]; EtOH/n-heptane 1:3, 10 °C, organic solvent or mixture): 192 mg/mL (≈ 326 mM)
- solubility ([2]; IPA, 10 °C, organic solvent or mixture): 79.6 mg/mL (≈ 135 mM)
- solubility ([2]; IPA, 50 °C, organic solvent or mixture): > 518 mg/mL
- solubility ([2]; MTBE, 10 °C, organic solvent or mixture): > 211 mg/mL
- solubility ([2]; MTBE, 50 °C, organic solvent or mixture): > 615 mg/mL
- solubility ([2]; acetone/n-heptane 1:1, 10 °C, organic solvent or mixture): > 589 mg/mL
- solubility ([2]; acetone/n-heptane 1:3, 10 °C, organic solvent or mixture): 208 mg/mL (≈ 353 mM)
- solubility ([2]; n-butanol, 10 °C, organic solvent or mixture): 268 mg/mL (≈ 455 mM)
- solubility ([2]; n-butanol, 50 °C, organic solvent or mixture): > 758 mg/mL
- solubility ([2]; n-heptane, 50 °C, organic solvent or mixture): 9.5 mg/mL (≈ 16.1 mM)
- solubility ([2]; water, 50 °C): 1.2 mg/mL (≈ 2.03 mM)
- XRPD (1~2 hours) ([3]; MTBE/n-heptane 1/1(v/v), 45 °C): Form 3
- XRPD (19 hours) ([3]; MTBE/n-heptane 1/1(v/v), 45 °C): Form 3
- XRPD (1~2 hours) ([3]; MTBE/n-heptane 1/4(v/v), 10 °C): Form 1 +
- XRPD (65 hours) ([3]; MTBE/n-heptane 1/4(v/v), 10 °C): Form 3
- XRPD (1~2 hours) ([3]; MTBE/n-heptane 1/4(v/v), 45 °C): Form 1+
- XRPD (19 hours) ([3]; MTBE/n-heptane 1/4(v/v), 45 °C): Form 3
- XRPD (1~2 hours) ([3]; MTBE/n-heptane 1/5(v/v), 10 °C): Form 1 +
- XRPD (65 hours) ([3]; MTBE/n-heptane 1/5(v/v), 10 °C): Form 3
- XRPD (1~2 hours) ([3]; MTBE/n-heptane 1/5(v/v), 45 °C): Form +
- XRPD (65 hours) ([3]; MTBE/n-heptane 1/5(v/v), 45 °C): Form 3

Further lines, results first:

- pH (2 hours) [1]: 8.71
- pH (4 hours) [1]: 8.65
- pH (7 hours) [1]: 8.32
Compound: CCOC(=O)[C@@H]1CC2(CCN(c3cc(O[C@H](c4ccc(Cl)cc4-c4ccccc4)C(F)(F)F)nc(N)n3)CC2)CN1 [ES928-59-3]

- solubility thermodynamic ([4]; buffer pH 1.2, pH 1.2, simulated gastric fluid, thermodynamic from solid, Buffer pH 1.2, read-out: Conc. Actual): 49 mg/mL (≈ 83 mM)
Compound: CCOC(=O)[C@@H]1CC2(CCN(c3cc(O[C@H](c4ccc(Cl)cc4-c4ccccc4)C(F)(F)F)nc(N)n3)CC2)CN1 [ES-928-62-1]

- Conc. Actual ([4]; Ethanol Abs.): 129000 µg/mL
Compound: CCOC(=O)[C@@H]1CC2(CCN(c3cc(O[C@H](c4ccc(Cl)cc4-c4ccccc4)C(F)(F)F)nc(N)n3)CC2)CN1 [EdA-928-63-1]

- Conc. Actual ([4]; Buffer pH 1.2): 46000 µg/mL
Compound: CCOC(=O)[C@@H]1CC2(CCN(c3cc(O[C@H](c4ccc(Cl)cc4-c4ccccc4)C(F)(F)F)nc(N)n3)CC2)CN1 [ES-928-62-4]

- Conc. Actual ([4]; Ethanol Abs.): 58000 µg/mL
Compound: CCOC(=O)[C@@H]1CC2(CCN(c3cc(O[C@H](c4ccc(Cl)cc4-c4ccccc4)C(F)(F)F)nc(N)n3)CC2)CN1 [EdA-928-63-2]

From patent publication US11203597B2, “Crystalline spirocyclic compound, a dosage form containing, a method for using in treatment of disease, and a method for recrystallizing” (Altavant Sciences GmbH, priority 2018, dated 2021)
